Assay results from PMC11098465, “A comparative analysis of peptide-delivered antisense antibiotics using diverse nucleotide mimics” (RNA, 2024).

Columns and labels:
[1] = tested on: Cy5 5′-labeled acpP target RNA (40 nt, −20 to +20); assay: Microscale thermophoresis (MST) binding affinity; parameters: species or system Salmonella; conditions: for EC50 of binding to target mRNA by MST (in words): unconjugated ASO; for EC50: read-out: mRNA-binding affinity (EC50)
Description: To further quantify the binding affinities of the ASOs to the target mRNA, we used MST, a sensitive technique that measures a temperature-induced change in the fluorescence of a substrate as a function of the concentration of a nonfluorescent ligand ([Moon et al. 2018]; [Zimmer et al. 2021]). MST allowed us to quantify target affinity by calculating EC50 values, the half maximal effective concentration of binding to target mRNA (Table 1; Supplemental Fig. S4). […] Both are known to adopt C3′-endo ribose pucker conformation, which enhances their binding affinity to target mRNA ([Julien et al. 2008]; [Pallan et al. 2012]).
For each binding experiment, Cy5 5′-labeled RNA (as described above) was diluted to 10 nM in buffer A (50 mM Tris-HCl pH 7.6, 250 mM KCl, 5 mM MgCl2, 1 mM DTT, 5% glycerol supplemented with 0.05% Tween 20). A series of 16 tubes with different ASO dilutions (500–0.015 nM) were prepared in buffer A. For measurements, each ASO dilution was mixed with one volume of labeled RNA, which led to a final concentration of 5 nM labeled RNA and 250–0.007 nM of ASOs. The reaction was mixed by pipetting and incubated for 30 min at RT in the dark. Capillary forces were used to load the samples into Monolith NT.115 Premium Capillaries; measurements were performed using a Monolith Pico instrument (NanoTemper Technologies Gmbh) at an ambient temperature of 25°C. Instrument parameters were adjusted to 5% LED power, medium MST power, and MST on-time of 2.5 s. An initial fluorescence scan was performed across the capillaries to determine sample quality, which was followed by 16 thermophoresis measurements. […] Data of two independent measurements were analyzed for the ΔFnorm value determined by the MO Affinity Analysis software (NanoTemper Technologies Gmbh). The fitting for EC50 values was done using the Hill equation within the MO Affinity Analysis software. Data are presented as the mean EC50 values of two independent experiments.

Salmonella = Salmonella growth assay (MIC); type: cell-based, Salmonella enterica serovar Typhimurium strain SL1344; conditions: for Antibacterial activity (MIC): ASO conjugated to the KFF carrier peptide, ~10^5 cfu/mL in noncation-adjusted MHB, 37°C, OD600, highest concentration 10 µM; for Antibacterial activity (MIC) / Effect of KFF-ASO conjugates on Salmonella growth (in words): 24 h; for Effect of KFF-ASO conjugates on Salmonella growth (in words): up to 10 µM; for Effect of KFF-ASO conjugates on Salmonella growth (in words) / Bactericidal concentration: KFF conjugates; for Bactericidal concentration: spotting of ASO-treated bacterial samples at 24 h
Experimental: Next, we sought to compare the antibacterial efficacy of the ASOs upon delivery into bacterial cells with a KFF carrier peptide. Therefore, we measured the growth kinetics of Salmonella in the presence of the ASOs for 24 h (Fig. 4). Because we have previously shown that the KFF peptide has a minimum inhibitory concentration (MIC) of >10 µM ([Popella et al. 2021]), we choose 10 µM as a cutoff point in our experiments. […] Spotting of the ASO-treated bacterial samples at 24 h confirmed that PMO and PNA were bactericidal at 10 and 1.25 µM, respectively (Supplemental Fig. S6B).
An overnight bacterial cell culture was diluted 1:100 in fresh MHB and grown to OD600 0.5. The culture was then diluted to ∼10^5 cfu/mL in noncation-adjusted MHB. Subsequently, 190 µL bacterial solution was dispensed into a 96-well plate (Thermo Fisher Scientific) along with 10 µL of a 200 µM solution of the ASOs. Growth was monitored by measuring the OD at 600 nm every 20 min in a Synergy H1 plate reader (Biotek) with continuous double-orbital shaking (237 cpm) at 37°C for 24 h.

[2] = unconjugated ASO 250-0.007 nM, 5 nM Cy5 RNA, 50 mM Tris-HCl pH 7.6, 250 mM KCl, 5 mM MgCl2, 30 min RT, 25°C, Hill fit, mean ± SD, two independent experiments

| Substance | mRNA-binding affinity (EC50) [1, 2] | Antibacterial activity (MIC) (Salmonella) [µM] | Effect of KFF-ASO conjugates on Salmonella growth (in words) (Salmonella) | EC50 of binding to target mRNA by MST (in words) [1] | EC50 [1, 2] [nM] | Bactericidal concentration (Salmonella) [µM] |
| --- | --- | --- | --- | --- | --- | --- |
| DNA-PTO: phosphorothioate-modified DNA 10mer ASO, sequence CTCATACTCT, targeting acpP −5 to +5 (DNA, all phosphorothioate, methylation of C not given here) | Could not be determined | >10 | slight growth retardation was observed at 5 and 10 µM | – | – | – |
| LNA: 2′–4′-locked RNA 10mer ASO, sequence CTCATACTCT, targeting acpP −5 to +5 (all LNA, backbone and methylation of C not given here) | – | >10 | slight growth retardation was observed at 5 and 10 µM | upper picomolar range | 0.3 ± 0.1 | – |
| PMO: phosphorodiamidate morpholino 10mer ASO, sequence CTCATACTCT, targeting acpP −5 to +5 (all phosphorodiamidate morpholino (PMO)) | – | 10 | – | lower-mid nanomolar range | 5.9 ± 2.7 | 10 |
| PNA: peptide nucleic acid 10mer ASO, sequence CTCATACTCT, targeting acpP −5 to +5 (all peptide nucleic acid (PNA)) | – | 1.25 | – | upper picomolar range | 0.4 ± 0.4 | 1.25 |
| RNA-F: 2′-fluorinated RNA 10mer ASO, sequence CTCATACTCT, targeting acpP −5 to +5 (all 2'-fluoro, backbone and T or U not given here) | – | >10 | slight growth retardation was observed at 5 and 10 µM | lower-mid nanomolar range | 72.8 ± 36.2 | – |
| RNA-MOE: 2′-methoxyethylated RNA 10mer ASO, sequence CTCATACTCT, targeting acpP −5 to +5 (all 2'-MOE, backbone and methylation of C not given here) | – | >10 | slight growth retardation was observed at 5 and 10 µM | upper picomolar range | 0.3 ± 0.2 | – |
| RNA-OMe: 2′-methylated RNA 10mer ASO, sequence CTCATACTCT, targeting acpP −5 to +5 (all 2'-O-methyl, backbone and T or U not given here) | – | >10 | lacked any antibacterial activity | lower-mid nanomolar range | 4 ± 0.2 | – |
